# Assays:
# [1] = Partition coefficient (logP); assay type: physicochemical; settings: octanol/water
# [2] = target: T1, Steryl-sulfatase (Homo sapiens) (UniProt P08842); experiment: Inhibitory activity against estrone sulfatase relative to Estrone-3-sulfamate (EMATE)
# T1 sequence (whole entry): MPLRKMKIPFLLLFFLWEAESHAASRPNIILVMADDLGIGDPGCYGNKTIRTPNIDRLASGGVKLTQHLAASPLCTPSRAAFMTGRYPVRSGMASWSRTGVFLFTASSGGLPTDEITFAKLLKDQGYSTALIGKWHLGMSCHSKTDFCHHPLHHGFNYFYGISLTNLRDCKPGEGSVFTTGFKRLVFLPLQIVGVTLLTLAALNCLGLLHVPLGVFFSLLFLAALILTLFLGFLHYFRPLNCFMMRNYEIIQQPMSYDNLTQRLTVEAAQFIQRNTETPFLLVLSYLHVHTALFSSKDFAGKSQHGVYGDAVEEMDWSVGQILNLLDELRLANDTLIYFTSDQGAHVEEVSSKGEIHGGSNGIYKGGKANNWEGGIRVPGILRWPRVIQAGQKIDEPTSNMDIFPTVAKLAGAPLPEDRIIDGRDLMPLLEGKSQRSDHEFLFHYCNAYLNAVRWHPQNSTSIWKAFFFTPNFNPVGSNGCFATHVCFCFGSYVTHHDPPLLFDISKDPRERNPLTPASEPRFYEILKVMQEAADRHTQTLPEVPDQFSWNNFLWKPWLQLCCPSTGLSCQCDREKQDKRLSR
# [3] = target: T1, Steryl-sulfatase (Homo sapiens); experiment: Inhibitory activity against estrone sulfatase relative to 4-Methylcoumarin-7-O-sulfamate derivative (COUMATE)
# [4] = target: T1, Steryl-sulfatase (Homo sapiens)
# Description: Inhibitory activity against estrone sulfatase expressed as potency
Structure (SMILES),logP [1],Potency [2],Potency [3],Potency [4]
NS(=O)(=O)Oc1ccc(C(=O)c2ccccc2)cc1,2.9,0.0079,0.191,
CCCCCCCCC(=O)c1ccc(OS(N)(=O)=O)cc1,4.1,0.147,3.53,
CCCCCCCCCC(=O)c1ccc(OS(N)(=O)=O)cc1,4.4,0.0385,0.923,
Cc1cc(=O)oc2cc(OS(N)(=O)=O)ccc12,1.7,0.0417,,1
NS(=O)(=O)Oc1ccc(C(=O)Cc2ccccc2)cc1,2.9,0.0152,0.364,
CCCCCCCC(=O)c1ccc(OS(N)(=O)=O)cc1,3.7,0.0893,2.14,
"C[C@]12CC[C@@H]3c4ccc(OS(N)(=O)=O)cc4CCC3[C@@H]1CCC2=O (single isomer, unassigned) [EMATE]",3.9,,24,1
NS(=O)(=O)Oc1ccc(C(=O)/C=C/c2ccccc2)cc1,3.4,0.0019,0.0456,

# The next lines start with results.
logP [1],Potency [2],Potency [3],Structure (SMILES),Potency [4]
3.3,0.1,2.4,CCCCCCC(=O)c1ccc(OS(N)(=O)=O)cc1,
2.1,0.0126,0.301,CCCC(=O)c1ccc(OS(N)(=O)=O)cc1,
2.5,0.0239,0.574,CCCCC(=O)c1ccc(OS(N)(=O)=O)cc1,
1.4,0.0019,0.0472,NS(=O)(=O)Oc1ccc(C=O)cc1,
1.1,0.0016,0.0397,CC(=O)c1ccc(OS(N)(=O)=O)cc1,
